# Calls of active or inactive are those of the source. The calls are words filed in the database; no cut-off is given here.
# How the values were obtained:
# [1] = molecular target: Tyrosine-protein kinase FRK (Homo sapiens, UniProt P42685); test: Inhibition of human FRK using RLGRDKYKTLRQIRQ as substrate in presence of [gamma33P]-ATP by HotSpot assay
# [2] = molecular target: Tyrosine-protein kinase receptor TYRO3 (Homo sapiens) (UniProt Q06418); test: Inhibition of human TYRO3 at 1 uM using poly (Glu, Tyr)4:1 as substrate in presence of [gamma33P]-ATP by HotSpot assay relative to control
# [3] = molecular target: Casein kinase I isoform gamma-1 (Homo sapiens) (UniProt Q9HCP0); test: Inhibition of human CSNK1G1 at 1 uM using KRRRAL[pS]VASLPGL as substrate in presence of [gamma33P]-ATP by HotSpot assay relative to control
# [4] = test system: Epidermal growth factor receptor (Homo sapiens), P00533 [L858R]; details: BaF3, time 72.0 hrs
# [5] = molecular target: Serine/threonine-protein kinase PLK1 (Homo sapiens, UniProt P53350); test: Inhibition of human PLK1 using casein as substrate in presence of [gamma33P]-ATP by HotSpot assay
# [6] = molecular target: Rhodopsin kinase GRK7 (Homo sapiens) (UniProt Q8WTQ7); test: Inhibition of human GRK7 at 1 uM using casein as substrate in presence of [gamma33P]-ATP by HotSpot assay relative to control
# [7] = test system: Mus musculus; test: In vivo inhibition of ALK signaling in SCID Beige mouse xenografted with ALK positive human KARPAS-299 cells assessed as reduction in phosphorylated ALK level at 10 to 50 mg/kg, po administered as single dose and measured at 6 to 24 hrs by immunoblot analysis; type: functional, organism-based; details: dose 10-50 mg/kg, time 6-24 hrs
# [8] = molecular target: Serine/threonine-protein kinase Nek2 (Homo sapiens) (UniProt P51955); test: Inhibition of human NEK2 at 1 uM using MBP substrate in presence of [gamma33P]-ATP by HotSpot assay relative to control
# [9] = molecular target: Protein kinase C delta type (Homo sapiens) (UniProt Q05655); test: Inhibition of human PRKCD at 1 uM using ERMRPRKRQGSVRRRV as substrate in presence of [gamma33P]-ATP by HotSpot assay relative to control
# [10] = molecular target: Megakaryocyte-associated tyrosine-protein kinase (Homo sapiens) (UniProt P42679); test: Inhibition of human MATK at 1 uM using poly (Glu, Tyr)4:1 as substrate in presence of [gamma33P]-ATP by HotSpot assay relative to control
# [11] = molecular target: Glycogen synthase kinase-3 alpha (Homo sapiens) (UniProt P49840); test: Inhibition of human GSK3alpha at 1 uM using YRRAAVPPSPSLSRHSSPHQ(pS)EDEEE as substrate in presence of [gamma33P]-ATP by HotSpot assay relative to control
# [12] = molecular target: Tyrosine-protein kinase Fgr (Homo sapiens, UniProt P09769); test: Inhibition of human FGR using poly (Glu, Tyr)4:1 as substrate in presence of [gamma33P]-ATP by HotSpot assay
# [13] = molecular target: Serine/threonine-protein kinase 17A (Homo sapiens) (UniProt Q9UEE5); test: Inhibition of human STK17A at 1 uM using KKLNRTLSFAEPG as substrate in presence of [gamma33P]-ATP by HotSpot assay relative to control
# [14] = test system: NCI-H23; details: time 72 hrs
# [15] = molecular target: Tyrosine-protein kinase ZAP-70 (Homo sapiens) (UniProt P43403); test: Inhibition of human ZAP70 at 1 uM using MBP as substrate in presence of [gamma33P]-ATP by HotSpot assay relative to control
# [16] = molecular target: Receptor tyrosine-protein kinase erbB-2 (Homo sapiens, UniProt P04626); test: Inhibition of human ERBB2 at 1 uM using poly (Glu, Tyr)4:1 as substrate in presence of [gamma33P]-ATP by HotSpot assay relative to control
# [17] = molecular target: MAP kinase-activated protein kinase 3 (Homo sapiens) (UniProt Q16644); test: Inhibition of human MAPKAPK3 at 1 uM using KKLNRTLSVA as substrate in presence of [gamma33P]-ATP by HotSpot assay relative to control
# [18] = molecular target: Discoidin domain-containing receptor 2 (Homo sapiens) (UniProt Q16832); test: Inhibition of human DDR2 at 1 uM using KKSRGDYMTMQIG as substrate in presence of [gamma33P]-ATP by HotSpot assay relative to control
# [19] = molecular target: Serine/threonine-protein kinase Nek9 (Homo sapiens, UniProt Q8TD19); test: Inhibition of human NEK9 using MBP as substrate in presence of [gamma33P]-ATP by HotSpot assay
# [20] = molecular target: Death-associated protein kinase 3 (Homo sapiens) (UniProt O43293); test: Inhibition of human DAPK3 at 1 uM using KKLNRTLSFAEPG as substrate in presence of [gamma33P]-ATP by HotSpot assay relative to control
# [21] = molecular target: MAP/microtubule affinity-regulating kinase 3 (Homo sapiens, UniProt P27448); test: Inhibition of human MARK3 using KKKVSRSGLYRSPSMPENLNRPR as substrate in presence of [gamma33P]-ATP by HotSpot assay
# [22] = molecular target: Serine/threonine-protein kinase NLK (Homo sapiens) (UniProt Q9UBE8); test: Inhibition of human NLK at 1 uM using MBP as substrate in presence of [gamma33P]-ATP by HotSpot assay relative to control
# [23] = test system: EML4-ALK (Homo sapiens), Q9UM73+Q9HC35 [G1202R]; details: BaF3, time 3-5 weeks
# [24] = molecular target: cGMP-dependent protein kinase 2 (Homo sapiens) (UniProt Q13237); test: Inhibition of human PRKG2 at 1 uM using LRRASLG as substrate in presence of [gamma33P]-ATP by HotSpot assay relative to control
# [25] = molecular target: Serine/threonine-protein kinase PAK 5 (Homo sapiens) (UniProt Q9P286); test: Inhibition of human PAK5 at 1 uM using RRRLSFAEPG as substrate in presence of [gamma33P]-ATP by HotSpot assay relative to control
# [26] = molecular target: Mitogen-activated protein kinase 1 (Homo sapiens) (UniProt P28482); test: Inhibition of human MAPK1 at 1 uM using MBP as substrate in presence of [gamma33P]-ATP by HotSpot assay relative to control
# [27] = test system: EML4-ALK (Homo sapiens), Q9UM73+Q9HC35 [F1174V]; details: BaF3, dose 200.0 nmol/L, time 3-5 weeks
# [28] = molecular target: Tyrosine-protein kinase CSK (Homo sapiens, UniProt P41240); test: Inhibition of human CSK using poly (Glu, Tyr)4:1 as substrate in presence of [gamma33P]-ATP by HotSpot assay
# [29] = test system: NCI-H838; details: time 72 hrs
# Chain of Tyrosine-protein kinase CSK (P41240 whole entry): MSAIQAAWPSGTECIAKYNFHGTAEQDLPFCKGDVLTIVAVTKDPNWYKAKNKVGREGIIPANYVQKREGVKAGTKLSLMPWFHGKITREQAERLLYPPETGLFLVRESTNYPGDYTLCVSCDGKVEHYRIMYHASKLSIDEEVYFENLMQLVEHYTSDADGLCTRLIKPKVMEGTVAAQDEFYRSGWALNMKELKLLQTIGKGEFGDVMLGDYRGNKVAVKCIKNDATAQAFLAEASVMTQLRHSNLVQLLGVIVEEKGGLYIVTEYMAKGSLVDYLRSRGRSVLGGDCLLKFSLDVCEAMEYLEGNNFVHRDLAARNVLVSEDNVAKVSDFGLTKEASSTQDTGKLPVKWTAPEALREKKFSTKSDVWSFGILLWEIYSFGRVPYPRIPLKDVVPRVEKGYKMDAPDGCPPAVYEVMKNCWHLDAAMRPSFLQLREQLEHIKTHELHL
# Chain of Rhodopsin kinase GRK7 (Homo sapiens) (Q8WTQ7 whole entry): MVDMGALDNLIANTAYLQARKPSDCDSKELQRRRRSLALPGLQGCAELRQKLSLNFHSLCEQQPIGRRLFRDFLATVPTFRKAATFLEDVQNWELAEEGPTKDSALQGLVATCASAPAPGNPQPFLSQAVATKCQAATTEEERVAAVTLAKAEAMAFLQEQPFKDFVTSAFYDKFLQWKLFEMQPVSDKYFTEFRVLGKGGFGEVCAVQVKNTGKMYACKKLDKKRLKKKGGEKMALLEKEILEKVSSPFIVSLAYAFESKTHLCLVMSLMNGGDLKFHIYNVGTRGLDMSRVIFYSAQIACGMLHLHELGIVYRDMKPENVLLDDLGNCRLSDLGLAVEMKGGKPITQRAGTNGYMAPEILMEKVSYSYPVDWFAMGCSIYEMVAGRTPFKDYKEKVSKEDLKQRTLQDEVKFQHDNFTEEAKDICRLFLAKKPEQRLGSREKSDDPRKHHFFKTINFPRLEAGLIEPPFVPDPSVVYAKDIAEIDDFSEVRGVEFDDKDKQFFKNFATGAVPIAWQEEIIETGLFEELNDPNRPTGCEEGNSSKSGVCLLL
# Chain of Megakaryocyte-associated tyrosine-protein kinase (Homo sapiens) (P42679 whole entry): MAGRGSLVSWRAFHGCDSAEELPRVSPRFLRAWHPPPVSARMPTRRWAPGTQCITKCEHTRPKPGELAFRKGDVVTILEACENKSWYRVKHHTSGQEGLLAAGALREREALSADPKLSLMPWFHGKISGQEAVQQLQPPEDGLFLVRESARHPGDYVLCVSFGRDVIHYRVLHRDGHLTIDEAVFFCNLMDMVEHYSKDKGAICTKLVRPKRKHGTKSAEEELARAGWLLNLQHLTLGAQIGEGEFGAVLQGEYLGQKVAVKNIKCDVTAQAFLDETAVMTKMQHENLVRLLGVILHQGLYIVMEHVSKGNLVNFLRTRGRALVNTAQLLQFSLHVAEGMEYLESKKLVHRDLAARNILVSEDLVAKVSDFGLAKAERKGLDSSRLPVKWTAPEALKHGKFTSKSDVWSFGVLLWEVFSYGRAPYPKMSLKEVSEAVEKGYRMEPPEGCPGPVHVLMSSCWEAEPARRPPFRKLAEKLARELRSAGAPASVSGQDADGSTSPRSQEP
# Chain of Serine/threonine-protein kinase PAK 5 (Homo sapiens) (Q9P286 whole entry, looked up): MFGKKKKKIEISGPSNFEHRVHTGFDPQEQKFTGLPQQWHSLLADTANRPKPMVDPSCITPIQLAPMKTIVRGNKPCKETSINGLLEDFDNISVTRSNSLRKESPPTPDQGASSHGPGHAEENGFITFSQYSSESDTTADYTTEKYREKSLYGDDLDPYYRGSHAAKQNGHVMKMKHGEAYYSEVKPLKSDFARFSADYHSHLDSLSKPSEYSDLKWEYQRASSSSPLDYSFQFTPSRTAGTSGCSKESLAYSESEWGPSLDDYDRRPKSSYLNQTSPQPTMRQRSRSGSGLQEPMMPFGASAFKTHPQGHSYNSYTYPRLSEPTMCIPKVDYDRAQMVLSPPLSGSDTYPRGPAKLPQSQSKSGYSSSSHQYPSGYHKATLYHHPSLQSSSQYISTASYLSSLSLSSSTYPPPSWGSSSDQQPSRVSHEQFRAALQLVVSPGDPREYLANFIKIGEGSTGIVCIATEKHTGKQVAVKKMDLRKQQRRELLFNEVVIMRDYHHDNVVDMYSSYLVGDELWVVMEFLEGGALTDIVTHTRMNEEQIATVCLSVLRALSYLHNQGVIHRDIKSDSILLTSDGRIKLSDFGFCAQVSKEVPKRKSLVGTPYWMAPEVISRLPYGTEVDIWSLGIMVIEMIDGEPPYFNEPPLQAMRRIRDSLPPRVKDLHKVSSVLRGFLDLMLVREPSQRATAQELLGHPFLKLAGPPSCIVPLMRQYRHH
# Chain of Serine/threonine-protein kinase NLK (Homo sapiens) (Q9UBE8 whole entry): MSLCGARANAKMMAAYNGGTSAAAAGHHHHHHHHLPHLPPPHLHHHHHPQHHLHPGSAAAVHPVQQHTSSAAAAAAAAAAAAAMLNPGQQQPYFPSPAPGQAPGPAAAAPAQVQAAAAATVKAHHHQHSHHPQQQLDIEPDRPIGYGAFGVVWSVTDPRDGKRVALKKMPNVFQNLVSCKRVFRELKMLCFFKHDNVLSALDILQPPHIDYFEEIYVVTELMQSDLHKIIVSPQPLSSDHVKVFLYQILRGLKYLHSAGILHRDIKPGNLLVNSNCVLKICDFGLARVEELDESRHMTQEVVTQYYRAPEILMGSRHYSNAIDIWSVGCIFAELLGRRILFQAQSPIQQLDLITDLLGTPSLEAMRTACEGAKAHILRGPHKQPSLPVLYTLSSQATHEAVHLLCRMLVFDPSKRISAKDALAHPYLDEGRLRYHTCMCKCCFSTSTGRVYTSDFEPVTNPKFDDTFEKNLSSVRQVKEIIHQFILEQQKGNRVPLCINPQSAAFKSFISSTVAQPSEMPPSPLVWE
# Chain of Epidermal growth factor receptor (Homo sapiens), P00533 [L858R] (P00533 whole entry L858R): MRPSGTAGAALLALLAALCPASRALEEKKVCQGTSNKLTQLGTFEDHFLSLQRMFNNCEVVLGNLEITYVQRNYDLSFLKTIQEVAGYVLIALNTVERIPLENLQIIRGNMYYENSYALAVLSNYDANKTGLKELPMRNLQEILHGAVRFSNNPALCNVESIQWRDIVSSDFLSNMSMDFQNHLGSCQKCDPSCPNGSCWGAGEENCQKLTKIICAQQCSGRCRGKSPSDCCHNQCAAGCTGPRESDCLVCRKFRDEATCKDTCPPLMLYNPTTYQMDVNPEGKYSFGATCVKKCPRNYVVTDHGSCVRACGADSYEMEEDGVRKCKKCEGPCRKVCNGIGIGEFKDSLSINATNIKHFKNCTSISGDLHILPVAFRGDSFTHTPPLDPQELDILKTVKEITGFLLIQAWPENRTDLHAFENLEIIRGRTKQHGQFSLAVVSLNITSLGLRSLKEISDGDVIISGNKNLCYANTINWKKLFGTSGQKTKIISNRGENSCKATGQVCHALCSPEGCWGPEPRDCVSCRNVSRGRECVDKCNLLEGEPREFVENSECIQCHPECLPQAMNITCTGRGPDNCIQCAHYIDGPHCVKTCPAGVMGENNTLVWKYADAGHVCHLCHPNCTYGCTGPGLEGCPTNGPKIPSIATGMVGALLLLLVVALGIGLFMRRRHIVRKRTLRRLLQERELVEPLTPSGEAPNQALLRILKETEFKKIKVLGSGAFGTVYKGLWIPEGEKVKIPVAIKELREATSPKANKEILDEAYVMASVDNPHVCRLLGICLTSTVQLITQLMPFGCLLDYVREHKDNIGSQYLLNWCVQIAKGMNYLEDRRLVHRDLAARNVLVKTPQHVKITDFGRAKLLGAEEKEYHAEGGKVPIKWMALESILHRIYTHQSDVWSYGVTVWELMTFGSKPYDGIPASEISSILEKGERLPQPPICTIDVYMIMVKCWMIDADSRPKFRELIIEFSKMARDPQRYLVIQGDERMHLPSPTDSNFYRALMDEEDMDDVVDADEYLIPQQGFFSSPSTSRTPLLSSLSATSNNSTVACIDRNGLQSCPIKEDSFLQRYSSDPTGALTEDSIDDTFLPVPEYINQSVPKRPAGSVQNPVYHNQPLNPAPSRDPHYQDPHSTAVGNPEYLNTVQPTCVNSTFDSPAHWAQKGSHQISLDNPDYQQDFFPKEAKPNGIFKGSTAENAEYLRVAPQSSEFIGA
# Chain of Serine/threonine-protein kinase 17A (Homo sapiens) (Q9UEE5 whole entry): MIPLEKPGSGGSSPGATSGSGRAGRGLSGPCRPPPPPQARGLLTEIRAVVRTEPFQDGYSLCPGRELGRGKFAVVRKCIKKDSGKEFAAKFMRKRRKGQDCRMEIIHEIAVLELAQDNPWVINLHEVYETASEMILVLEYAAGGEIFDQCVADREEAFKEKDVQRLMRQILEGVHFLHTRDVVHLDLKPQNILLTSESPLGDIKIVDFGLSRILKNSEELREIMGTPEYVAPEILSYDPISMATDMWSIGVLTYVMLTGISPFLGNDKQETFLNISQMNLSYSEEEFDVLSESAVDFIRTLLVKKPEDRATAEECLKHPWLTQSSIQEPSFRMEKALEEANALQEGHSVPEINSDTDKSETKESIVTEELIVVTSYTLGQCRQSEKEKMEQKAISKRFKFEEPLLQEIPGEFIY
# Chain of MAP kinase-activated protein kinase 3 (Homo sapiens) (Q16644 whole entry, looked up, the tested form may be a part): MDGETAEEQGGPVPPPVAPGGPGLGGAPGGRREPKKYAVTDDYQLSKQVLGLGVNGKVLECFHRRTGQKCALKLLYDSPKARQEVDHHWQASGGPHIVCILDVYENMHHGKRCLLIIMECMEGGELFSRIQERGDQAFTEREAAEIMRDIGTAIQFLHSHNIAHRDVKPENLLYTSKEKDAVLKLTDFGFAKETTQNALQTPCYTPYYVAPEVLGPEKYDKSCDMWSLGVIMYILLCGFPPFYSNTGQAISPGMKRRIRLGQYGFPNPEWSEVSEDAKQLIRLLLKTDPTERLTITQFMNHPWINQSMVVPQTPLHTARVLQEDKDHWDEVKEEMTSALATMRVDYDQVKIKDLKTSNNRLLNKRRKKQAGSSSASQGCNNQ
structure (smiles),measurement,setting,value
COc1cc(N2CCC(N3CCN(C)CC3)CC2)ccc1Nc1ncc(Cl)c(Nc2ccccc2P(C)(C)=O)n1 [BRIGATINIB],IC50,[1],52 nM
same,inhibition,[2],< 90%
same,inhibition,[3],< 90%
same,IC90,[4],1200 nM
same,IC50,[5],611 nM
same,inhibition,[6],< 90%
same,Activity,[7],Active
same,inhibition,[8],< 90%
same,inhibition,[9],< 90%
same,inhibition,[10],< 90%
same,inhibition,[11],< 90%
same,IC50,[12],492 nM
same,inhibition,[13],< 90%
same,GI50,[14],1340 nM
same,inhibition,[15],< 90%
same,inhibition,[16],< 90%
same,inhibition,[17],< 90%
same,inhibition,[18],< 90%
same,IC50,[19],> 1000 nM
same,inhibition,[20],< 90%
same,IC50,[21],127 nM
same,inhibition,[22],< 90%
same,IC90,[23],762 nM
same,inhibition,[24],< 90%
same,inhibition,[25],< 90%
same,inhibition,[26],< 90%
same,inhibition,[27],inactive
same,IC50,[28],329 nM
same,GI50,[29],503 nM

# — ChEMBL document CHEMBL5696443 (Clin Cancer Res, 2016)
